Values of other authors, collected in US20100137292A1, “Pharmaceutical formulations of meloxicam” (SANOVEL ILAC SANAYI VE TICARET A.S., priority 2008, published 2010).

Solubility in alcohol (alcohol): very slightly soluble | Solubility in water (water): practically insoluble
Compound: Cc1cnc(NC(=O)C2=C(O)c3ccccc3S(=O)(=O)N2C)s1 [Meloxicam, 4-hydroxy-2-methyl-N-(5-methyl-2-thiazolyl)-2H-1,2-benzothiazine-3-carboxamide-1,1-dioxide]
